Measurements: patent publication EP0500835B1, “A NOVEL QUINOLONE CARBOXYLIC ACID DERIVATIVE” (DAEWOONG PHARMACEUTICAL CO., LTD., priority 1990, dated 1992)
Values after ≈ are worked out from the molar mass of the structure shown.

Tests used:
[1] = test system: Staphylococcus aureus 88 E; experiment: Antibacterial activity for MRSA; type: cell-based; settings: Staphylococcus aureus 88 E (MRSA)
Protocol: (§1) The compound of example 2 was orally administered to determine the LD50 for a group of male mice. […] The antibacterial activity for MRSA(Methicillin Resistant Staphyloccocus Aureus) was tested by the compound of example 2.

[2] = test system: Staphylococcus aureus 711E; experiment: Antibacterial activity for MRSA; type: cell-based; settings: Staphylococcus aureus 711E (MRSA)
Protocol: as §1

[3] = test system: Staphylococcus aureus 121E; experiment: Antibacterial activity for MRSA; type: cell-based; settings: Staphylococcus aureus 121E (MRSA)
Protocol: as §1

[4] = test system: Staphylococcus aureus 714E; experiment: Antibacterial activity for MRSA; type: cell-based; settings: Staphylococcus aureus 714E (MRSA)
Protocol: as §1

[5] = test system: Staphylococcus aureus 693E; experiment: Antibacterial activity for MRSA; type: cell-based; settings: Staphylococcus aureus 693E (MRSA)
Protocol: as §1

[6] = test system: Staphylococcus aureus 697E; experiment: Antibacterial activity for MRSA; type: cell-based; settings: Staphylococcus aureus 697E (MRSA)
Protocol: as §1

[7] = test system: Staphylococcus aureus 706E; experiment: Antibacterial activity for MRSA; type: cell-based; settings: Staphylococcus aureus 706E (MRSA)
Protocol: as §1

[8] = test system: Staphylococcus aureus 695E; experiment: Antibacterial activity for MRSA; type: cell-based; settings: Staphylococcus aureus 695E (MRSA)
Protocol: as §1

[9] = test system: Staphylococcus aureus 256E; experiment: Antibacterial activity for MRSA; type: cell-based; settings: Staphylococcus aureus 256E (MRSA)
Protocol: as §1

[10] = test system: Staphylococcus aureus 694E; experiment: Antibacterial activity for MRSA; type: cell-based; settings: Staphylococcus aureus 694E (MRSA)
Protocol: as §1

[11] = test system: Staphylococcus aureus 708E; experiment: Antibacterial activity for MRSA; type: cell-based; settings: Staphylococcus aureus 708E (MRSA)
Protocol: as §1

[12] = test system: Staphylococcus aureus 703E; experiment: Antibacterial activity for MRSA; type: cell-based; settings: Staphylococcus aureus 703E (MRSA)
Protocol: as §1

[13] = test system: Staphylococcus aureus 701E; experiment: Antibacterial activity for MRSA; type: cell-based; settings: Staphylococcus aureus 701E (MRSA)
Protocol: as §1

[14] = test system: Saphylococcus aureus 692E; experiment: Antibacterial activity for MRSA; type: cell-based; settings: Saphylococcus aureus 692E (MRSA)
Protocol: as §1

[15] = test system: Staphylococcus aureus 208E; experiment: Antibacterial activity for MRSA; type: cell-based; settings: Staphylococcus aureus 208E (MRSA)
Protocol: as §1

[16] = test system: Staphylococcus aureus 705E; experiment: Antibacterial activity for MRSA; type: cell-based; settings: Staphylococcus aureus 705E (MRSA)
Protocol: as §1

[17] = test system: Staphylococcus aureus 752E; experiment: Antibacterial activity for MRSA; type: cell-based; settings: Staphylococcus aureus 752E (MRSA)
Protocol: as §1

[18] = test system: Staphylococcus aureus 707E; experiment: Antibacterial activity for MRSA; type: cell-based; settings: Staphylococcus aureus 707E (MRSA)
Protocol: as §1

[19] = test system: Staphylococcus aureus 690E; experiment: Antibacterial activity for MRSA; type: cell-based; settings: Staphylococcus aureus 690E (MRSA)
Protocol: as §1

P. aeruginosa 1592E = experiment: In vitro antibacterial activity, MIC by agar dilution method; type: cell-based; settings: Pseudomonas aeruginosa; P. aeruginosa 1592E; agar dilution method; read-out: In vitro Antibacterial Activity, MIC
Protocol: (§2) The typical examples of the present compounds were tested for antimicrobial activity in vitro against twenty strains of Gram-positive and Gram-negative microorganisms.
(§3) The numerals in the table 1 show minimum inhibitory concentrations(MIC in µg/ml). The minimum inhibitory concentrations were determined according to the agar dilution method recommended by Japan Society of Chemotherapy[Chemotherapy., 29, 76 (1981)].

S. faecium MD 86 = experiment: as above; type: cell-based; settings: Enterococcus faecium, MD86; S. faecium MD 86; agar dilution method; read-out: In vitro Antibacterial Activity, MIC
Protocol: as §2, §3

E. coli TEM = experiment: as above; type: cell-based; settings: Escherichia coli; E. coli TEM; agar dilution method; read-out: In vitro Antibacterial Activity, MIC
Protocol: as §2, §3

E. coli DC 0 = experiment: as above; type: cell-based; settings: Escherichia coli, DC0, read-out: In vitro Antibacterial Activity, MIC
Protocol: as §2, §3

E. coli DC 2 = experiment: as above; type: cell-based; settings: Escherichia coli, DC2, read-out: In vitro Antibacterial Activity, MIC
Protocol: as §2, §3

E. coli 1507E = experiment: as above; type: cell-based; settings: Escherichia coli; E. coli 1507E; agar dilution method; read-out: In vitro Antibacterial Activity, MIC
Protocol: as §2, §3

S. pyogenes A 308 = experiment: as above; type: cell-based; settings: Streptococcus pyogenes, A308; S. pyogenes A 308; agar dilution method; read-out: In vitro Antibacterial Activity, MIC
Protocol: as §2, §3

P. aeruginosa 1771M = experiment: as above; type: cell-based; settings: Pseudomonas aeruginosa; P. aeruginosa 1771M; agar dilution method; read-out: In vitro Antibacterial Activity, MIC
Protocol: as §2, §3

P. aeruginosa 9027 = experiment: as above; type: cell-based; settings: Pseudomonas aeruginosa; P. aeruginosa 9027; agar dilution method; read-out: In vitro Antibacterial Activity, MIC
Protocol: as §2, §3

S. aureus SG 511 = experiment: as above; type: cell-based; settings: Staphylococcus aureus, SG511; S. aureus SG 511; agar dilution method; read-out: In vitro Antibacterial Activity, MIC
Protocol: as §2, §3

S. aureus 285 = experiment: as above; type: cell-based; settings: Staphylococcus aureus; S. aureus 285; agar dilution method; read-out: In vitro Antibacterial Activity, MIC
Protocol: as §2, §3

K. oxytoca 1082E = experiment: as above; type: cell-based; settings: Klebsiella oxytoca; K. oxytoca 1082E; agar dilution method; read-out: In vitro Antibacterial Activity, MIC
Protocol: as §2, §3

S. aureus 503 = experiment: as above; type: cell-based; settings: Staphylococcus aureus; S. aureus 503; agar dilution method; read-out: In vitro Antibacterial Activity, MIC
Protocol: as §2, §3

S. pyogenes A 77 = experiment: as above; type: cell-based; settings: Streptococcus pyogenes, A77; S. pyogenes A 77; agar dilution method; read-out: In vitro Antibacterial Activity, MIC
Protocol: as §2, §3

P. aeruginosa 1771 = experiment: as above; type: cell-based; settings: Pseudomonas aeruginosa; P. aeruginosa 1771; agar dilution method; read-out: In vitro Antibacterial Activity, MIC
Protocol: as §2, §3

E. coli O 55 = experiment: as above; type: cell-based; settings: Escherichia coli, O55; E. coli O 55; agar dilution method; read-out: In vitro Antibacterial Activity, MIC
Protocol: as §2
(§4) The minimum inhibitory concentrations were determined according to the agar dilution method recommended by Japan Society of Chemotherapy[Chemotherapy., 29, 76 (1981)].

E. cloacae 1321E = experiment: as above; type: cell-based; settings: Enterobacter cloacae; E. cloacae 1321E; agar dilution method; read-out: In vitro Antibacterial Activity, MIC
Protocol: as §2, §4

E. cloacae P99 = experiment: as above; type: cell-based; settings: Enterobacter cloacae; E. cloacae P99; agar dilution method; read-out: In vitro Antibacterial Activity, MIC
Protocol: as §2, §4

S. typhimurium = experiment: as above; type: cell-based; settings: Salmonella enterica; S. typhimurium; agar dilution method; read-out: In vitro Antibacterial Activity, MIC
Protocol: as §2, §4

K. aerogenes 1522E = experiment: as above; type: cell-based; settings: Klebsiella aerogenes; K. aerogenes 1522E; agar dilution method; read-out: In vitro Antibacterial Activity, MIC
Protocol: as §2, §4

Oral LD50 in male mice = settings: mouse, in vivo, orally administered
Protocol: as §1

CSCC1CCN(c2c(F)cc3c(=O)c(C(=O)O)cn(C4CC4)c3c2F)C1 (stereo not shown) [Example 2, 1-cyclopropyl-6,8-difluoro-7-(3-methylthiomethylpyrrolidinyl)-1,4-dihydro-4-oxo-3-quinolinecarboxylic acid]
Antibacterial Activity for MRSA [1]: 0.004 µg/mL | Antibacterial Activity for MRSA [2]: 0.013 µg/mL | Antibacterial Activity for MRSA [3]: 0.013 µg/mL | Antibacterial Activity for MRSA [4]: 0.007 µg/mL | Antibacterial Activity for MRSA [5]: 0.007 µg/mL | Antibacterial Activity for MRSA [6]: 0.013 µg/mL | Antibacterial Activity for MRSA [7]: 0.013 µg/mL | Antibacterial Activity for MRSA [8]: 0.013 µg/mL | Antibacterial Activity for MRSA [9]: 0.013 µg/mL | Antibacterial Activity for MRSA [10]: 0.013 µg/mL | Antibacterial Activity for MRSA [11]: 0.007 µg/mL | Antibacterial Activity for MRSA [12]: 0.007 µg/mL | Antibacterial Activity for MRSA [13]: 0.013 µg/mL | Antibacterial Activity for MRSA [14]: 0.004 µg/mL | Antibacterial Activity for MRSA [15]: 0.025 µg/mL | Antibacterial Activity for MRSA [16]: 0.013 µg/mL | Antibacterial Activity for MRSA [17]: 0.013 µg/mL | Antibacterial Activity for MRSA [18]: 0.007 µg/mL | Antibacterial Activity for MRSA [19]: 0.004 µg/mL | MIC (P. aeruginosa 1592E): 0.781 µg/mL (≈ 1.98 µM) | MIC (S. faecium MD 86): 0.195 µg/mL (≈ 0.494 µM) | MIC (E. coli TEM): 0.391 µg/mL (≈ 0.991 µM) | MIC (E. coli DC 0): 0.781 µg/mL (≈ 1.98 µM) | MIC (E. coli DC 2): 0.781 µg/mL (≈ 1.98 µM) | MIC (E. coli 1507E): 0.391 µg/mL (≈ 0.991 µM) | MIC (S. pyogenes A 308): 0.195 µg/mL (≈ 0.494 µM) | MIC (P. aeruginosa 1771M): 0.098 µg/mL (≈ 0.248 µM) | MIC (P. aeruginosa 9027): 0.781 µg/mL (≈ 1.98 µM) | MIC (S. aureus SG 511): 2 ng/mL (≈ 0.00507 µM) | MIC (S. aureus 285): 2 ng/mL (≈ 0.00507 µM) | MIC (K. oxytoca 1082E): 7 ng/mL (≈ 0.0177 µM) | MIC (S. aureus 503): 2 ng/mL (≈ 0.00507 µM) | MIC (S. pyogenes A 77): 0.098 µg/mL (≈ 0.248 µM) | MIC (P. aeruginosa 1771): 0.391 µg/mL (≈ 0.991 µM) | MIC (E. coli O 55): 0.013 µg/mL (≈ 0.033 µM) | MIC (E. cloacae 1321E): 0.025 µg/mL (≈ 0.0634 µM) | MIC (E. cloacae P99): 0.098 µg/mL (≈ 0.248 µM) | MIC (S. typhimurium): 0.049 µg/mL (≈ 0.124 µM) | MIC (K. aerogenes 1522E): 0.098 µg/mL (≈ 0.248 µM) | LD50 (Oral LD50 in male mice): > 3000 mg/kg
